Our source for the IC50 values is US20170334899A1, “AMINO-SUBSTITUTED ISOTHIAZOLES” (Bayer Pharma Aktiengesellschaft, priority 2014, published 2017).

This test concerns the target T1, human kinase Mps-1 (Homo sapiens, UniProt P33981).
T1 construct: N-terminally GST-tagged human full length recombinant Mps-1 kinase; GST (N); purchased Invitrogen, Karslruhe, Germany PV4071
T1 sequence (P33981 1-857): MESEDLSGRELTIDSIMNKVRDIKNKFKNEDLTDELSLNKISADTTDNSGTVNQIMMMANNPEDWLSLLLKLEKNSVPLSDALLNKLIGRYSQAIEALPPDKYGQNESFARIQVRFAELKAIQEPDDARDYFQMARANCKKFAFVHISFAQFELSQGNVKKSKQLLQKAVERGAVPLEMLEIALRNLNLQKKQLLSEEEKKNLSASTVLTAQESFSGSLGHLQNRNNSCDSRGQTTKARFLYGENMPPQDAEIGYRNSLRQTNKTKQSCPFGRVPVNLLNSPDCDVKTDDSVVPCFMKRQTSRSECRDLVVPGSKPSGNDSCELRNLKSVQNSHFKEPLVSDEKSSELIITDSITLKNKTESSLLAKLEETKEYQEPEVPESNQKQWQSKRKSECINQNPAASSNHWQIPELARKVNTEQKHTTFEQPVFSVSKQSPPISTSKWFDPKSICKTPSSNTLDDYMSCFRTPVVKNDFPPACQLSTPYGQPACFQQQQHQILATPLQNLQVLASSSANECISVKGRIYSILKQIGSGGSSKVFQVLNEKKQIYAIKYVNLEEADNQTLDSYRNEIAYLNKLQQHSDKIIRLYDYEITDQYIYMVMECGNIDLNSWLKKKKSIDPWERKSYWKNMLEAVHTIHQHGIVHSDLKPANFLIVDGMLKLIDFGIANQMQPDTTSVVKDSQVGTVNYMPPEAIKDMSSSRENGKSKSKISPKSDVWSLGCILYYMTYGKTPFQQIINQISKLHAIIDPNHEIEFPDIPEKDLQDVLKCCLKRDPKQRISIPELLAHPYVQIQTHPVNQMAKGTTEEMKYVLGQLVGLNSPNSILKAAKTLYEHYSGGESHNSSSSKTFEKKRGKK
The test is described as follows: Mps-1 kinase assay (TR-FRET). The format is biochemical. The conditions noted are these: Mps-1 TR-FRET kinase assay; avg; read-out: Mps1 avg (IC50 [mol/l]). The method, boiled down: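 Inhibition normalised between uninhibited reaction (0%) and enzyme-free wells (100%), using the blank-corrected TR-FRET 665/620 nm ratio after EDTA stop. Reaction: ~0.5 nM GST-Mps-1 full length, 10 μM ATP, 1 μM biotin-peptide, 60 min at 22 °C, after 15 min compound pre-binding, pH 7.7.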
For `Cc1nsc(Nc2cnc(C(F)(F)F)cn2)c1C(=O)Nc1ccc(OCCNCCF)nc1` [Example 321, N-(6-{2-[(2-fluoroethyl)amino]ethoxy}pyridin-3-yl)-3-methyl-5-{[5-(trifluoromethyl)pyrazin-2-yl]amino}-1,2-thiazole-4-carboxamide], the IC50 was not below 20 µM.

Consider `Cc1nsc(Nc2cc(C#N)ccn2)c1C(=O)Nc1ccc(OC2CCN(C(=O)OC(C)(C)C)CC2)nc1` [Example 23, tert-Butyl 4-({5-[({5-[(4-cyanopyridin-2-yl)amino]-3-methyl-1,2-thiazol-4-yl}-carbonyl)amino]pyridin-2-yl}oxy)piperidine-1-carboxylate], for which the IC50 was determined as 17 µM.

Turning to `Cc1nsc(Nc2cncc(C(F)(F)F)n2)c1C(=O)Nc1ccc(F)c(OC2CCN(CC(F)F)CC2)c1` [Example 268, N-(3-{[1-(2,2-difluoroethyl)piperidin-4-yl]oxy}-4-fluorophenyl)-3-methyl-5-{[6-(trifluoromethyl)pyrazin-2-yl]amino}-1,2-thiazole-4-carboxamide], the IC50 was more than 20 µM. The value for `Cc1nsc(Nc2cnc(C(F)(F)F)cn2)c1C(=O)Nc1ccc(OCCO)nc1` [Example 277, N-[6-(2-hydroxyethoxy)pyridin-3-yl]-3-methyl-5-{[5-(trifluoromethyl)pyrazin-2-yl]amino}-1,2-thiazole-4-carboxamide] was more than 20 µM; that for `Cc1nsc(Nc2cc(C#N)ccn2)c1C(=O)Nc1ccc(OC2CCN(CC(F)(F)F)CC2)nc1` [Example 25, 5-[(4-Cyanopyridin-2-yl)amino]-3-methyl-N-(6-{[1-(2,2,2-trifluoroethyl)piperidin-4-yl]oxy}pyridin-3-yl)-1,2-thiazole-4-carboxamide] was not below 20 µM.

As for `Cc1nsc(Nc2cc(C#N)ccn2)c1C(=O)Nc1ccc(OC2CCN(CC(F)F)CC2)nc1` [Example 263, 5-[(4-cyanopyridin-2-yl)amino]-N-(6-{[1-(2,2-difluoroethyl)piperidin-4-yl]oxy}pyridin-3-yl)-3-methyl-1,2-thiazole-4-carboxamide], the IC50 is more than 20 µM. Turning to `Cc1nsc(Nc2cnc(C(F)(F)F)cn2)c1C(=O)Nc1ccc(F)c(OCC2CCN(CCC(F)(F)F)CC2)c1` [Example 311, N-(4-fluoro-3-{[1-(3,3,3-trifluoropropyl)piperidin-4-yl]methoxy}phenyl)-3-methyl-5-{[5-(trifluoromethyl)pyrazin-2-yl]amino}-1,2-thiazole-4-carboxamide], the IC50 was more than 20 µM. To `Cc1nsc(Nc2cnc(C(F)(F)F)cn2)c1C(=O)Nc1ccc(OC2CCN(CC(F)(F)F)C2)nc1` (stereo not drawn) [Example 297, 3-methyl-N-(6-{[1-(2,2,2-trifluoroethyl)pyrrolidin-3-yl]oxy}pyridin-3-yl)-5-{[5-(trifluoromethyl)pyrazin-2-yl]amino}-1,2-thiazole-4-carboxamide] belongs 12 µM. To `Cc1nsc(Nc2cnc(C(F)(F)F)cn2)c1C(=O)Nc1ccc(F)c(OC2CCN(CC(F)F)C2)c1` (stereo not drawn) [Example 314, N-(3-{[1-(2,2-difluoroethyl)pyrrolidin-3-yl]oxy}-4-fluorophenyl)-3-methyl-5-{[5-(trifluoromethyl)pyrazin-2-yl]amino}-1,2-thiazole-4-carboxamide] belongs not below 20 µM; to `Cc1nsc(Nc2cnc3ccccc3n2)c1C(=O)Nc1cccc(NS(=O)(=O)C2CCN(CC(F)(F)F)C2)c1` (stereo not drawn) [Example 289, 3-methyl-5-(quinoxalin-2-ylamino)-N-[3-({[1-(2,2,2-trifluoroethyl)pyrrolidin-3-yl]sulfonyl}amino)phenyl]-1,2-thiazole-4-carboxamide], more than 20 µM. To `Cc1nsc(Nc2cncc(C(F)(F)F)n2)c1C(=O)Nc1ccc(F)c(OC2CCN(CCF)CC2)c1` [Example 269, N-(4-fluoro-3-{[1-(2-fluoroethyl)piperidin-4-yl]oxy}phenyl)-3-methyl-5-{[6-(trifluoromethyl)pyrazin-2-yl]amino}-1,2-thiazole-4-carboxamide] belongs more than 20 µM; to `Cc1nsc(Nc2cnc(C(F)(F)F)cn2)c1C(=O)Nc1ccc(N(C)C)c(OCCCN(C)CC(F)(F)F)c1` [Example 299, N-[4-(dimethylamino)-3-{3-[methyl(2,2,2-trifluoroethyl)amino]propoxy}phenyl]-3-methyl-5-{[5-(trifluoromethyl)pyrazin-2-yl]amino}-1,2-thiazole-4-carboxamide], more than 20 µM. Consider `Cc1nsc(Nc2cncc(C(F)(F)F)n2)c1C(=O)Nc1ccc(OC2CCN(CCC(F)(F)F)CC2)nc1` [Example 304, 3-methyl-5-{[6-(trifluoromethyl)pyrazin-2-yl]amino}-N-(6-{[1-(3,3,3-trifluoropropyl)piperidin-4-yl]oxy}pyridin-3-yl)-1,2-thiazole-4-carboxamide], for which the IC50 was more than 20 µM. Consider `Cc1nsc(Nc2cnc(C(F)(F)F)cn2)c1C(=O)Nc1ccc(F)c(OC2CCN(CC(F)F)CC2)c1` [Example 265, N-(3-{[1-(2,2-difluoroethyl)piperidin-4-yl]oxy}-4-fluorophenyl)-3-methyl-5-{[5-(trifluoromethyl)pyrazin-2-yl]amino}-1,2-thiazole-4-carboxamide], for which the IC50 is more than 20 µM.

In the case of `Cc1nsc(Nc2cnc(C(F)(F)F)cn2)c1C(=O)Nc1ccc(OCCNCC(F)F)nc1` [Example 305, N-(6-{2-[(2,2-difluoroethyl)amino]ethoxy}pyridin-3-yl)-3-methyl-5-{[5-(trifluoromethyl)pyrazin-2-yl]amino}-1,2-thiazole-4-carboxamide], the IC50 was not below 20 µM. To `Cc1nsc(Nc2cncc(C(F)(F)F)n2)c1C(=O)Nc1ccc(OCCO)nc1` [Example 276, N-[6-(2-hydroxyethoxy)pyridin-3-yl]-3-methyl-5-{[6-(trifluoromethyl)pyrazin-2-yl]amino}-1,2-thiazole-4-carboxamide] belongs more than 20 µM; to `CCN1CCN(C(=O)c2ccc(NC(=O)c3c(C)nsc3Nc3cnc(C(F)(F)F)cn3)cc2)CC1` [Example 261, N-{4-[(4-ethylpiperazin-1-yl)carbonyl]phenyl}-3-methyl-5-{[5-(trifluoromethyl)pyrazin-2-yl]amino}-1,2-thiazole-4-carboxamide], more than 20 µM.

`Cc1nsc(Nc2ccc(C#N)cn2)c1C(=O)Nc1cccc(C(=O)NC(C)C)c1` [Example 255, 5-[(5-cyanopyridin-2-yl)amino]-N-[3-(isopropylcarbamoyl)phenyl]-3-methyl-1,2-thiazole-4-carboxamide]: the IC50 was more than 20 µM. The value for `Cc1nsc(Nc2cnc(C(F)(F)F)cn2)c1C(=O)Nc1ccc(C(=O)NC2CCN(CC(F)F)CC2)cc1` [Example 259, N-(4-{[1-(2,2-difluoroethyl)piperidin-4-yl]carbamoyl}phenyl)-3-methyl-5-{[5-(trifluoromethyl)pyrazin-2-yl]amino}-1,2-thiazole-4-carboxamide] was more than 20 µM; that for `COC(=O)CCc1cccc(NC(=O)c2c(C)nsc2Nc2cnc3ccccc3n2)c1` [Example 257, methyl 3-[3-({[3-methyl-5-(quinoxalin-2-ylamino)-1,2-thiazol-4-yl]carbonyl}amino)phenyl]propanoate] was more than 20 µM. The value for `Cc1nsc(Nc2cnc(C(F)(F)F)cn2)c1C(=O)Nc1ccc(C(=O)NC2CN(CC(F)F)C2)cc1` [Example 271, N-(4-{[1-(2,2-difluoroethyl)azetidin-3-yl]carbamoyl}phenyl)-3-methyl-5-{[5-(trifluoromethyl)pyrazin-2-yl]amino}-1,2-thiazole-4-carboxamide] was more than 20 µM; that for `Cc1nsc(Nc2cnc3ccccc3n2)c1C(=O)Nc1cccc(NS(=O)(=O)C2CN(CC(F)(F)F)C2)c1` [Example 285, 3-methyl-5-(quinoxalin-2-ylamino)-N-[3-({[1-(2,2,2-trifluoroethyl)azetidin-3-yl]sulfonyl}amino)phenyl]-1,2-thiazole-4-carboxamide] was more than 20 µM. Take `Cc1nsc(Nc2cnc(C(F)(F)F)cn2)c1C(=O)Nc1ccc(C(=O)N2CCN(CC(F)(F)F)CC2)cc1` [Example 260, 3-methyl-N-(4-{[4-(2,2,2-trifluoroethyl)piperazin-1-yl]carbonyl}phenyl)-5-{[5-(trifluoromethyl)pyrazin-2-yl]amino}-1,2-thiazole-4-carboxamide]: the IC50 was more than 20 µM. To `Cc1nsc(Nc2cnc3ccccc3n2)c1C(=O)Nc1cccc(NS(=O)(=O)C2CCN(CCC(F)(F)F)CC2)c1` [Example 283, 3-methyl-5-(quinoxalin-2-ylamino)-N-[3-({[1-(3,3,3-trifluoropropyl)piperidin-4-yl]sulfonyl}amino)phenyl]-1,2-thiazole-4-carboxamide] belongs more than 20 µM.
